The molecules below were run on despinalisierten Meerschweinchen (assay: Positive inotropic effect in despinalised guinea pigs (LV-dp/dtmax, i.v. injection)). Conditions: Cavia porcellus, iv; 1 mg/kg i.v.; mean values, each substance tested in 3 despinalised guinea pigs; read-out: Zunahme in LV-dp/dtmax.
Format: in vivo
Description: Bestimmung der positiv inotropen Wirkung an despinalisierten Meerschweinchen
Die Untersuchungen wurden an despinalisierten Meerschweinchen durchgeführt. Die Tiere wurden mit 50 % 02 + 50 % N2 beatmet. Der arterielle Blutdruck wurde in der rechten Arteria Carotis mit einem Bell and Howell Druckwandler (4-327-1) gemessen. Für die Erfassung der positiv inotropen Wirkung wurde mit einem Kathetertipmanometer (Millar PR-249) der Druck in dem linken Ventrikel (LV) gemessen. Mittels eines Differenzierers wurde LV-dp/dtmax gewonnen. Die zu untersuchenden Substanzen wurden in eine Vena jugularis injiziert. Als Lösungsmittel diente 0,9 % NaCl+Polydiol 200 (1:1).
Jede Substanz wurde an 3 Meerschweinchen überprüft. Die Dosen waren 0,1 - 3 mg/kg i.v.. Die nachfolgende Tabelle enthält die Mittelwerte bei 1 mg/kg i.v..

Compared with CN(C)S(=O)(=O)c1ccc(-c2cn3ccc(=O)[nH]c3n2)cc1 [Substanz A], COc1cc(S(=O)(=O)N(C)C)ccc1-c1cn2ccc(=O)[nH]c2n1 [Substanz F, 2-(2-Methoxy-4-dimethylaminosulfonyl-phenyl)-8H-imidazo-[1,2-a]pyrimidin-7-on] is higher in change in vivo at 1 mg/kg: 32% for the first, 47% for the second.

First: COc1ccc(-c2cn3cc[nH]c(=O)c3n2)cc1 [Substanz B, 2-(4-Methoxy-phenyl)-7H-imidazo[1,2-a]pyrazin-8-on]
Second: COc1cc(OS(C)(=O)=O)ccc1-c1cn2cc[nH]c(=O)c2n1 [Substanz I, 2-(2-Methoxy-4-methylsulfonyloxy-phenyl)-7H-imidazo-[1,2-a]pyrazin-8-on]
The change in vivo at 1 mg/kg of the first is lower: 45% for the first, 98% for the second.

Compared with COc1ccc(-c2cn3c(=O)[nH]c(=O)[nH]c3n2)cc1 [Substanz C, 7-(4-Methoxy-phenyl)-1H,3H-imidazo[1,2-a][1.3.5]triazin-2,4-dion], COc1cc(OS(C)(=O)=O)ccc1-c1cn2ccc(=O)[nH]c2n1 [Substanz D, 2-(2-Methoxy-4-methylsulfonyloxy-phenyl)-8H-imidazo-[l,2-a]pyrimidin-7-on] is lower in change in vivo at 1 mg/kg: 86% for the first, 63% for the second.

First: COc1cc(C#N)ccc1-c1cn2ccc(=O)[nH]c2n1 [Substanz E, 2-(2-Methoxy-4-cyano-phenyl)-8H-imidazo[1,2-a]pyrimidin-7-on]
Second: CNS(=O)(=O)c1ccc(-c2cn3ccc(=O)[nH]c3n2)c(OC)c1 [Substanz G, 2-(2-Methoxy-4-methylaminosulfonyl-phenyl)-8H-imidazo-[1,2-a]pyrimidin-7-on]
The change in vivo at 1 mg/kg of the first is lower: 44% for the first, 75% for the second.

Work on COc1cc(C(=O)N(C)C)ccc1-c1cn2ccc(=O)[nH]c2n1 [Substanz H, 2-(2-Methoxy-4-dimethylaminocarbonyl-phenyl)-8H-imidazo-[l,2-a]pyrimidin-7-on] yielded a change in vivo at 1 mg/kg of 33%.

From patent EP0185346A2, “Imidazo derivatives, their preparation and medicaments containing these compounds” (Dr. Karl Thomae GmbH, priority 1984, dated 1986)
